In patent US9546401B2, “Assays and methods for selecting a treatment regimen for a subject with depression” (The General Hospital Corporation, priority 2011, dated 2017):
Like-named read-outs stand apart in the source and are kept apart here.

How the values were obtained:
[1] = tested on: SSRI-resistant outpatients with major depressive disorder (MDD)
Excerpt: Using the sequential parallel design […] For those randomly assigned to the placebo/placebo sequence, both responders and non-responders to placebo during the first phase (n=25) remain on placebo during the second phase. […] Data from the previous double-blind, placebo-controlled study (Trial 1) can be pooled into the instant study (Trial 2) to provide a more accurate estimate of the placebo effect size, with a weighted average from the two Phases 1 (one from Trial 1 and one from Trial 2) and two Phases 2 (one from Trial 1 and one from Trial 2).
The primary efficacy measure can include the change in 17-item Hamilton Rating Scale for Depression (HAM-D-17) score. […] A remission is, for example, defined as a HAM-D-17 score less than 8 at endpoint. Secondary measures of efficacy can include change in CGI-severity, with “clinical response defined” as CGI-S of 1 or 2 at endpoint. Patients with a CGI-I score greater than 5 at any post baseline visit or a 50 percent or greater worsening of depressive symptoms from baseline to that visit are discontinued from the study. Subjects are also discontinued from the study with any emergence of suicidality, homicidality, mania, or psychosis. Additional exemplary instruments that can be administered according to the study schedule include the following: • (1) Structured Clinical Interview for DSM-IV: The SCID-I/P, administered by the clinician, proceeds by modules to diagnose the different Axis I disorders. Questions are asked exactly as written, and each is based on the individual criteria from DSM-IV. Answers are generally rated on a scale of 1-3 (1=doubtful, 2=probable, 3=definite), and, based on the number of positive answers, a diagnosis is determined by a clinician. While the entire SCID-I/P is administered at screen, the mood module is administered at each follow up visit. • (2) The MGH Antidepressant Treatment History Questionnaire (MGH-ATR): The MGH-ATR provides specific criteria for the adequate dose and adequate length of a trial for it to be considered a failure, thus allowing clinicians to systematically collect data aimed at assessing the degree of treatment-resistance of the current major depressive episode. • (3) The 28-item Hamilton Depression Scale (HAM-D-28): This version allows scoring of the HAM-D-17, 21-, 25-, and 28-item scales. This instrument is completed by the clinician by using a structured interview and defined anchor points, and aims to quantify the degree of depression over the past 7 days. The HAM-D is the most widely studied instrument for depression, and its reliability and validity are high. • (4) Clinical Global Impressions—Severity and Improvement (CGI-S, CGI-I): These two instruments are scored 1-7 by the clinician based on assessment of the patient's clinical status. They measure, based on history and scores on other instruments: a) Depressive severity (CGI-S) and b) Clinical Improvement (CGI-I). […] Safety Measurements
Data are entered and error-checked at each clinical site involved in the study. Study staff and subjects may have the option to enter self-evaluations into the system directly using DatStat Illume™. The process of data entry is supervised by the DCRP staff. Once the data set is entered and checked, analyses are conducted. Both a completer analysis of all patients finishing the trial and an intent-to-treat analysis examining all patients enrolled into the trial are used to define the severity of depression at endpoint. Examination of both study completers and all patients randomized can provide the broadest assessment of the effects of treatment in trials of such kind. The data from Trial 2 can be pooled with those from Trial 1 with the sequential parallel comparison design, to provide an estimate of the placebo response based on a larger sample size. […] Let p1, q1 be the response rates to the first administration of drug and placebo respectively and let p2, q2 be the responses rates to the second treatment.

[2] = tested on: SSRI-resistant outpatients with major depressive disorder (MDD); remark: listed apart in the source
Method: Documentation of the presence of any side effect or adverse event is completed at every visit using the SAFTEE-SI. Subjects can contact a clinician at any time between visits concerning adverse events or worsening of symptoms. Suicidal ideation is assessed at each visit. Subjects who are felt by the study clinician to be at high risk for suicide are discontinued from the study and referred for hospitalization and further treatment if clinically indicated (See Tables 4 & 5 below).
One-way analysis of variance can be used to assess differences in total number of SAFTEE-SI AEs between baseline and endpoint.

[3] = Pooled Phase 1 and 2, 7.5 mg/day + SSRI
[4] = Trial 2, 15 mg + SSRI, versus placebo

CN1c2c(nc(N)[nH]c2=O)NC[C@@H]1CNc1ccc(C(=O)N[C@@H](CCC(=O)O)C(=O)O)cc1 [6(S)-5-MTHF, 6(S)-5-methyltetrahydrofolate]
efficacy as an adjunct to the SSRIs ([1]; 7.5 mg/day): not effective | CGI-S Mean score reduction ([1]; Phase 1, 7.5 mg/day + SSRI): −0.5 | HDRS-17 % Remission ([1]; Phase 1, 7.5 mg/day + SSRI): 11.1% | HDRS-17 % Response ([1]; Phase 1, 7.5 mg/day + SSRI): 19.4% | HDRS-17 Mean score reduction ([1]; Phase 1, 7.5 mg/day + SSRI): −4.3 | QIDS-SR % Remission ([1]; Phase 1, 7.5 mg/day + SSRI): 0.0% | QIDS-SR % Response ([1]; Phase 1, 7.5 mg/day + SSRI): 25.0% | QIDS-SR Mean score reduction ([1]; Phase 1, 7.5 mg/day + SSRI): −4.6 | CGI-S Mean score reduction ([1]; Phase 2, 7.5 mg/day + SSRI): −0.5 | HDRS-17 % Remission ([1]; Phase 2, 7.5 mg/day + SSRI): 14.2% | HDRS-17 % Response ([1]; Phase 2, 7.5 mg/day + SSRI): 17.1% | HDRS-17 Mean score reduction ([1]; Phase 2, 7.5 mg/day + SSRI): −3.1 | QIDS-SR % Remission ([1]; Phase 2, 7.5 mg/day + SSRI): 8.5% | QIDS-SR % Response ([1]; Phase 2, 7.5 mg/day + SSRI): 8.5% | QIDS-SR Mean score reduction ([1]; Phase 2, 7.5 mg/day + SSRI): −1.9 | CGI-S Mean score reduction [1, 3]: −0.53 | HDRS-17 % Remission [1, 3]: 12.7% | HDRS-17 % Response [1, 3]: 18.3% | HDRS-17 Mean score reduction [1, 3]: −3.70 | QIDS-SR % Remission [1, 3]: 4.3% | QIDS-SR % Response [1, 3]: 16.8% | QIDS-SR Mean score reduction [1, 3]: −3.25 | increase in response and remission rate versus placebo with the SSRIs ([1]; Trial 1, 15 mg/day in second phase): at least 2 fold | response and remission rate ([1]; Trial 1, drug/drug sequence, dose increased to 15 mg/day in second phase, placebo 9%, p=0.1): 24% | number of adverse events (SAFTEE-SI) ([2]; SSRI + 15 mg/day versus SSRI + placebo): no significant differences in the number of adverse events | discontinuation due to overall adverse side-effects or exclusion events ([2]; Trial 2): no difference in discontinuation | Cardiovascular side effects, Frequency ([2]; Trial 2, 15 mg + SSRI, n = 42): 0 | Cardiovascular side effects, Frequency (%) ([2]; Trial 2, 15 mg + SSRI, n = 42): (0%) | Gastrointestinal side effects, Frequency ([2]; Trial 2, 15 mg + SSRI, n = 42): 7 | Gastrointestinal side effects, Frequency (%) ([2]; Trial 2, 15 mg + SSRI, n = 42): (16.7%) | Infectious side effects, Frequency ([2]; Trial 2, 15 mg + SSRI, n = 42): 5 | Infectious side effects, Frequency (%) ([2]; Trial 2, 15 mg + SSRI, n = 42): (11.9%) | Miscellaneous side effects, Frequency ([2]; Trial 2, 15 mg + SSRI, n = 42): 1 | Miscellaneous side effects, Frequency (%) ([2]; Trial 2, 15 mg + SSRI, n = 42): (2.4%) | Psychological side effects, Frequency ([2]; Trial 2, 15 mg + SSRI, n = 42): 4 | Psychological side effects, Frequency (%) ([2]; Trial 2, 15 mg + SSRI, n = 42): (9.5%) | Sexual side effects, Frequency ([2]; Trial 2, 15 mg + SSRI, n = 42): 1 | Sexual side effects, Frequency (%) ([2]; Trial 2, 15 mg + SSRI, n = 42): (2.4%) | Sleep side effects, Frequency ([2]; Trial 2, 15 mg + SSRI, n = 42): 1 | Sleep side effects, Frequency (%) ([2]; Trial 2, 15 mg + SSRI, n = 42): (2.4%) | Somatic side effects, Frequency ([2]; Trial 2, 15 mg + SSRI, n = 42): 6 | Somatic side effects, Frequency (%) ([2]; Trial 2, 15 mg + SSRI, n = 42): (14.3%) | Cardiovascular side effects, NNH [2, 4]: =placebo | Gastrointestinal side effects, NNH [2, 4]: 53 | Infectious side effects, NNH [2, 4]: <placebo | Miscellaneous side effects, NNH [2, 4]: <placebo | Psychological side effects, NNH [2, 4]: <placebo | Sexual side effects, NNH [2, 4]: 98 | Sleep side effects, NNH [2, 4]: <placebo | Somatic side effects, NNH [2, 4]: <placebo
